From article PMC10135315 (Antioxidants, 2023)
Like-named read-outs stand apart in the source and are kept apart here.

Columns and labels:
[1] = target: T1, xanthine oxidase from bovine milk (Bos taurus, UniProt P80457); test: Steady-state determination of XO activity (uric acid formation at 295 nm), dose-dependent inhibition; format: biochemical; conditions: 75 µM xanthine; for IC50: steady-state determination, 25 °C, pH 7.8
T1 construct: xanthine oxidase from bovine milk (0.5 U/mg); purchased Sigma-Aldrich (St. Louis, MO, USA); host or cells: bovine milk (natural source)
Description: The activity of XO was measured spectrophotometrically at 25 °C by monitoring the increase of absorbance at 295 nm due to the formation of uric acid, using a Cary 100 UV-Vis Spectrophotometer (Agilent Technologies, Milan, Italy), essentially, as previously reported. […] The DMSO concentration carried over by the inhibitor was 0.5% (v/v); an identical concentration of DMSO was used in the absence of inhibitor. The reaction started with the addition of XO and was followed kinetically up to 30 s by continuously monitoring the absorbance. The initial rate of uric acid formation was derived from the linear part of the kinetics and expressed as ΔE/min. The effect of each inhibitor was evaluated through the ratio of residual XO activity measured in the presence of each inhibitor over that measured in the absence of inhibitor.

[2] = target: T1, xanthine oxidase from bovine milk; test: Kinetic measurements of XO activity (Michaelis-Menten / Lineweaver-Burk); format: biochemical; conditions: for Ki / Vmax in presence of inhibitor: 4-30 µM xanthine; for Ki: from increase of KM for xanthine, competitive model; for Mechanism of XO inhibition: kinetic analysis; for Vmax in presence of inhibitor: pooled over the tested inhibitor concentrations
Description: The inhibition power of the various compounds and their mechanism of inhibition were assessed through kinetic measurements of the XO activity. To this aim, each assay was carried out in a 500 µL final volume reaction mixture, containing 4–30 µM xanthine dissolved in buffer A in the absence or presence of a fixed concentration of the various inhibitors. The reaction started with the addition of XO and was followed as indicated in steady-state assays. The kinetic parameters of the reaction, KM for the substrate and Vmax of the reaction, were derived either from the direct non-linear interpolation in the Michaelis–Menten hyperbolic equation of the initial rate of uric acid formation vs. the xanthine concentration or from a double reciprocal transformation of the kinetic data in Lineweaver–Burk plots. […] Therefore, the inhibition constant (Ki) was obtained from the increase of KM for xanthine in the presence of the inhibitor, according to the KM′ = KM•{1 + ([I]/Ki)} equation, where KM′ represents the KM for xanthine measured in the presence of the concentration [I] of the inhibitor.

[3] = target: T1, xanthine oxidase from bovine milk; test: Reversibility of XO inhibition by dilution method; format: biochemical
Description: The reversibility of the inhibition mechanism was evaluated through a dilution method of a solution containing XO and inhibitor. To this aim, a sample of XO was incubated at 25 °C in the absence or presence of a concentrated solution of inhibitor. Aliquots of these mixtures were withdrawn at different times and 4-fold diluted through the addition of a solution containing the substrate xanthine. The samples were then immediately assayed for XO activity as previously indicated for the steady-state determinations.

XO = conditions: cited from earlier work
[4] = known XO inhibitors co-crystallised into XO, no reference given

T1 sequence (P80457 whole entry): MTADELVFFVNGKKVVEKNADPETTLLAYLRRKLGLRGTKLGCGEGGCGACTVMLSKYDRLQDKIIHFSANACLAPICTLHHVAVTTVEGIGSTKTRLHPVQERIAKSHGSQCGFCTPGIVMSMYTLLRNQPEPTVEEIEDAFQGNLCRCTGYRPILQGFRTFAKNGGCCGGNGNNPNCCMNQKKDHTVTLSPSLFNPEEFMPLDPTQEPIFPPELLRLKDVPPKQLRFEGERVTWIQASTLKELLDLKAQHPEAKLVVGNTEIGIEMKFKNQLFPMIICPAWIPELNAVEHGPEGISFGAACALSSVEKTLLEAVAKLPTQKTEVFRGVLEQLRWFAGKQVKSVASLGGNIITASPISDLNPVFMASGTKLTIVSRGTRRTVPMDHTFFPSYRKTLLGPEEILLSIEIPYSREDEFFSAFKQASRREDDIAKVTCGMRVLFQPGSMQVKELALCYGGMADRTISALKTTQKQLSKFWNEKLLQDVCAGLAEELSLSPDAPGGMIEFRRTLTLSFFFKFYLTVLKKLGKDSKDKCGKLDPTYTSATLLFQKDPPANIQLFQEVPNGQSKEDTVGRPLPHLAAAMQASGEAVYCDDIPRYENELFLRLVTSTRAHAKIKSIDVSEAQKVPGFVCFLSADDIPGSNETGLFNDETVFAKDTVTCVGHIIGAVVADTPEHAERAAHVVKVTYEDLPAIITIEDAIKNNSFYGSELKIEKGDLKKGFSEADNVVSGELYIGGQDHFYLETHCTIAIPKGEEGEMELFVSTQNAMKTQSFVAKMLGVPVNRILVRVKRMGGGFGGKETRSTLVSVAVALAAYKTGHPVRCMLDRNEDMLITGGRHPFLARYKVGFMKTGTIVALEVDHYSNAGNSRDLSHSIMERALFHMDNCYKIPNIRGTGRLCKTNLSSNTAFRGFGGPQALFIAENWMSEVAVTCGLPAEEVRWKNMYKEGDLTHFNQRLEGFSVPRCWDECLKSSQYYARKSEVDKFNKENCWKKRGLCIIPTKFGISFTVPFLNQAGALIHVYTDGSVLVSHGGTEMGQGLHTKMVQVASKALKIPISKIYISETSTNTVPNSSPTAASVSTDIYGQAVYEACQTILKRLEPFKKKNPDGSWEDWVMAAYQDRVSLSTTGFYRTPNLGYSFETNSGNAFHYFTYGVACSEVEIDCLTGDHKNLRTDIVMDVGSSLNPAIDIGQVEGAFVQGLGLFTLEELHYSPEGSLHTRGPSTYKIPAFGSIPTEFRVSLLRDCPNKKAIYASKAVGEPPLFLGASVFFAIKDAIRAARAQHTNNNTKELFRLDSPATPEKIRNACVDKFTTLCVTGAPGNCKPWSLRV

With `O=C(O)c1cc2ccc(Br)cc2[nH]1` [ALS-1] the “Inhibition profile of XO activity” value [1] was “dose-dependent inhibition”, the IC50 [1] was 82 µM and the Ki [2] was 41 ± 14 µM. For the same molecule, the “Mechanism of XO inhibition” value [2] was “competitive inhibitors” and the “Vmax in presence of inhibitor” value [2] was 0.087 ± 0.004 (n = 2) ΔE/min.
For `O=C(O)c1cc(-c2cccc(F)c2)[nH]n1` [ALS-8], the “Inhibition profile of XO activity” value [1] was “dose-dependent inhibition”, the IC50 [1] was 30 µM and the Ki [2] was 4.5 ± 1.5 µM. For the same molecule, the “Mechanism of XO inhibition” value [2] was “competitive inhibitors” and the “Vmax in presence of inhibitor” value [2] was 0.093 ± 0.007 (n = 4) ΔE/min.
For `Brc1cncc(-c2nn[nH]n2)c1` [ALS-15], the “Inhibition profile of XO activity” value [1] was “dose-dependent inhibition”, the IC50 [1] was 64 µM and the Ki [2] was 23 ± 9 µM. For the same molecule, the “Mechanism of XO inhibition” value [2] was “competitive inhibitors” and the “Vmax in presence of inhibitor” value [2] was 0.086 ± 0.003 (n = 4) ΔE/min.
In the case of `O=C(O)c1cc(-c2ccc(Cl)cc2)ncn1` [ALS-28], the “Inhibition profile of XO activity” value [1] is reported as “dose-dependent inhibition”, the IC50 [1] is reported as 18 µM and the Ki [2] is reported as 2.7 ± 1.5 µM. The “Mechanism of XO inhibition” value [2] was “competitive inhibitors”, the “Vmax in presence of inhibitor” value [2] was 0.113 ± 0.007 (n = 4) ΔE/min and the “Time-dependent reduction of XO activity” value ([3]; 60 µM inhibitor, 25 °C, up to 30 min) was “no time-dependent reduction of XO activity”. The Reversibility of inhibition ([3]; preincubation with XO at 25 °C up to 30 min, then 4-fold dilution (ALS-28: 60 µM to 15 µM)) was “reversible inhibitor”.
For `N#Cc1cc(-c2n[nH]c(-c3ccncc3)n2)ccn1` [FYX-051, topiroxostat], the Inhibition mechanism (XO) is listed as “hybrid-type inhibition mechanism”.
In the case of `Cc1nc(-c2ccc(OCC(C)C)c(C#N)c2)sc1C(=O)O` [TEI-6720, febuxostat], the Inhibition mechanism (XO) is listed as “mixed-type inhibition”.
For `O=c1c(O)c(-c2ccc(O)c(O)c2)oc2cc(O)cc(O)c12` [quercetin], the Inhibition mechanism (XO; [4]) is given as “competitive”.
In the case of `O=C(O)c1ccccc1O` [salicylic acid], the Inhibition mechanism (XO; [4]) is listed as “competitive inhibitor”.
